Holding throughout (assay): HTS ATP-utilizing enzyme assay, off-chip mobility-shift (Caliper HTS 250)
Common to all, as to type: biochemical
Holding throughout (settings): kinase named = inhibitory activity/selectivity; test compound 10 μM; active = greater than three-sigma from mean

The target of one test is CDK2 (Homo sapiens, UniProt P24941). Put shortly: (§1)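 Single-point screen at 10 µM compound: kinase reactions ran 2.5 h at 20–22 °C and were stopped with termination buffer. Inhibition was read as the substrate-to-phosphopeptide ratio by microfluidic mobility shift, with EDTA and DMSO wells as controls. Hits were called by three-sigma limits.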
The target in another test is T1, BMX (Homo sapiens, UniProt P51813).
T1 sequence (P51813 1-675): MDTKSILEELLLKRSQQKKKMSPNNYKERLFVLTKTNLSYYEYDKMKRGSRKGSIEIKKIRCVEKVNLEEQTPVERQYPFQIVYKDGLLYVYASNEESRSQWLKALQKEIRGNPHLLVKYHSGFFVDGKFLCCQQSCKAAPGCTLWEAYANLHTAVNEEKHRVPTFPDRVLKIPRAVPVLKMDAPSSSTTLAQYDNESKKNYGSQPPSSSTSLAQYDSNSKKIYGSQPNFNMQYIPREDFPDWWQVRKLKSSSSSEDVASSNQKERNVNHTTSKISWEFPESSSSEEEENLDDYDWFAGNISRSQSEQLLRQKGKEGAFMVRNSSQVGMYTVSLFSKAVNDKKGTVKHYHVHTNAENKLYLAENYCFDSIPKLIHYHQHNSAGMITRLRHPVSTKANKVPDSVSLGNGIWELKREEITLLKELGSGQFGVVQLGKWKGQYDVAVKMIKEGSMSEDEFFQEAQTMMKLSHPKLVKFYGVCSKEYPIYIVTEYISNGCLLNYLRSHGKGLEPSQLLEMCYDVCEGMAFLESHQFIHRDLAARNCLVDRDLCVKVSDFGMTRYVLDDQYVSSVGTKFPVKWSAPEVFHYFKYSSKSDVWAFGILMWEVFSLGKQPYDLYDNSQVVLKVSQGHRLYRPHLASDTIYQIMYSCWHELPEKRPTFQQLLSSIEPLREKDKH
Put shortly: as §1

For a further test, the target named is T2, AKT1 (Homo sapiens, UniProt P31749).
T2 construct: purchased Upstate 14-276
Put shortly: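 AKT1 activity was measured by off-chip mobility shift (Caliper HTS 250) as the ratio of peptide substrate to phosphorylated product. Test compound was at 10 μM, with 2.5 h incubation at 20–22° C. EDTA wells served as 100% control and DMSO wells as 0%. Hits were called at three-sigma limits.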

A further test addresses CDK2/cyclin E (Homo sapiens, UniProt P24941). Put shortly: as §1
For the next test, the target named is SYK (Homo sapiens, UniProt P43405). Put shortly: as §1
For another test, the target named is T3, PDK1 (Homo sapiens, UniProt O15530).
T3 sequence (O15530 1-556): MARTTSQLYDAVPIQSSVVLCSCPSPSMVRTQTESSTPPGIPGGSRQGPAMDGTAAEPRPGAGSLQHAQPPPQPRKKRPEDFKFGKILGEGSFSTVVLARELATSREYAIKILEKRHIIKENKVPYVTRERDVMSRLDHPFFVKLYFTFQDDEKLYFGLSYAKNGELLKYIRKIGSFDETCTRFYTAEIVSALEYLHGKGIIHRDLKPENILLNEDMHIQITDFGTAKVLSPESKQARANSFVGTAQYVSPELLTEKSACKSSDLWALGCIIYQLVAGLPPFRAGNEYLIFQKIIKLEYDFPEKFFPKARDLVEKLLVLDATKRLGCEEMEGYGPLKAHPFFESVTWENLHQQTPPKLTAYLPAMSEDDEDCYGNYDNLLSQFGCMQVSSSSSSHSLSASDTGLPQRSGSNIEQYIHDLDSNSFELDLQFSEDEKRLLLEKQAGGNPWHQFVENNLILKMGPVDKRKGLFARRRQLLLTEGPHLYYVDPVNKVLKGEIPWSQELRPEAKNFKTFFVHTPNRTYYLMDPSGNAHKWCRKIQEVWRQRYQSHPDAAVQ
Put shortly: as §1

A further test has as its target KIT (Homo sapiens, UniProt P10721). Put shortly: as §1
The next test concerns the target T4, FLT-3 (Homo sapiens, UniProt P36888).
T4 sequence (P36888 27-993): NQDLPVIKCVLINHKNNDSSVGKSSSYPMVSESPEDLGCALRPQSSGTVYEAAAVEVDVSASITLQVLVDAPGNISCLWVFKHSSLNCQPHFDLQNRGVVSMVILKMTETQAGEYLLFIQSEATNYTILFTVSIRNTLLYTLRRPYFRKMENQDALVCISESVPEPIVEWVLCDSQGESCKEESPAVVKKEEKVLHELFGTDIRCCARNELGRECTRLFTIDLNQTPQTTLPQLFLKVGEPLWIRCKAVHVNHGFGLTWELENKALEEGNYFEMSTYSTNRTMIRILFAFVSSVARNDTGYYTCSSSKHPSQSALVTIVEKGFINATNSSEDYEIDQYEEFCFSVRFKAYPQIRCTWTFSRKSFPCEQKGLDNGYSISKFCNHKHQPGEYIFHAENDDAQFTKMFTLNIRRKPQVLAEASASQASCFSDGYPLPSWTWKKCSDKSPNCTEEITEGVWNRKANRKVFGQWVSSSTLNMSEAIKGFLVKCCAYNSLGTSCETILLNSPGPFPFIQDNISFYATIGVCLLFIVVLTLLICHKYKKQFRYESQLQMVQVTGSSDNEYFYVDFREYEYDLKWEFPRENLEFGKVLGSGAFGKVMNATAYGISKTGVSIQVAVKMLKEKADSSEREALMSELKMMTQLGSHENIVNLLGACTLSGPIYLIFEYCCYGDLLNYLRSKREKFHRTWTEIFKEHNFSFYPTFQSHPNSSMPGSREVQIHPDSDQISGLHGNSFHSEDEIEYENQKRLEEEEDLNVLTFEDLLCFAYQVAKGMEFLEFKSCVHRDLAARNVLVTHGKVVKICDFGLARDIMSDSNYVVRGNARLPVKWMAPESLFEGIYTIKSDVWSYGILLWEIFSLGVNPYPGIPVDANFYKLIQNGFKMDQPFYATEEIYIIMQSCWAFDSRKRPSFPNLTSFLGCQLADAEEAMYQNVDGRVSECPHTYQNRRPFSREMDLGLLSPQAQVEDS
Put shortly:
as §1

The target in another test is PDGFR-α (Homo sapiens, UniProt P16234). Put shortly:
as §1

For a further test, the target named is T5, ZAP70 (Homo sapiens, UniProt P43403).
T5 sequence (P43403 1-619): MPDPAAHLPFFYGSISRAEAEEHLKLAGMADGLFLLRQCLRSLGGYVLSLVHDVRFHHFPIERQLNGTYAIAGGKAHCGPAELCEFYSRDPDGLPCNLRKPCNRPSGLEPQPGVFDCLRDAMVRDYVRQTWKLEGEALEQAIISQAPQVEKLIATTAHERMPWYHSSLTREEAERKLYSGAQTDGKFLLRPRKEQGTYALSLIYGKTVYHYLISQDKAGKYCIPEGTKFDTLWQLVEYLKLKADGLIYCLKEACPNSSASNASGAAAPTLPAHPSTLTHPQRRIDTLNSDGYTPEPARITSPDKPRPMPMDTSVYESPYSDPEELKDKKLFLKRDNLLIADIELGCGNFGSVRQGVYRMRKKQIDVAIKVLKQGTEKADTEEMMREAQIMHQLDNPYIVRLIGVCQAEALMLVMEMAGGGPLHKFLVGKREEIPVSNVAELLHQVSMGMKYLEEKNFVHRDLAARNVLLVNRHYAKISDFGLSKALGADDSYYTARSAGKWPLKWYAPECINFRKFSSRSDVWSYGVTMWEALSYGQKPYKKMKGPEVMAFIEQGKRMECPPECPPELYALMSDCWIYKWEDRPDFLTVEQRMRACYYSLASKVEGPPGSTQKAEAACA
Put shortly:
as §1

The target of a further test is T6, DYRK2 (Homo sapiens, UniProt Q92630).
T6 sequence (Q92630 1-601): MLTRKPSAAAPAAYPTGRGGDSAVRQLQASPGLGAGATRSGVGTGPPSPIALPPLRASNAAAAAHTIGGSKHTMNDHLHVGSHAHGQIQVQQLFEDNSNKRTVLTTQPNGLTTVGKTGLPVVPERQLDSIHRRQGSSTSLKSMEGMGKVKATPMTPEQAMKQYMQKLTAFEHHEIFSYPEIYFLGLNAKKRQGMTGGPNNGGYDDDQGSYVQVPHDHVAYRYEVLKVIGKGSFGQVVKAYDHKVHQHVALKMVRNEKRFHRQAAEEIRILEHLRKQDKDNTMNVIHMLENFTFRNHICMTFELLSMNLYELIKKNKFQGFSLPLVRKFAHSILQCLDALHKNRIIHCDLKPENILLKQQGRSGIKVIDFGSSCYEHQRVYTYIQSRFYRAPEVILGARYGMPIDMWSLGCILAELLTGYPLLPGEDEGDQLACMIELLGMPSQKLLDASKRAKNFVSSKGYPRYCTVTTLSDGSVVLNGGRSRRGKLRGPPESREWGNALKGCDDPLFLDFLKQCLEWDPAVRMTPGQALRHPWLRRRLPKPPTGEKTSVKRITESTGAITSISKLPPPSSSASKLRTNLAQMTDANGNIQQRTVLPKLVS
Put shortly:
as §1

Another test deals with MAPKAPK-2 (Homo sapiens, UniProt P49137). Put shortly:
as §1

The next test deals with CHEK2 (Homo sapiens, UniProt O96017). Put shortly:
as §1

Another test has as its target INSR (Homo sapiens, UniProt P06213). Put shortly:
as §1

T2 sequence (P31749 whole entry): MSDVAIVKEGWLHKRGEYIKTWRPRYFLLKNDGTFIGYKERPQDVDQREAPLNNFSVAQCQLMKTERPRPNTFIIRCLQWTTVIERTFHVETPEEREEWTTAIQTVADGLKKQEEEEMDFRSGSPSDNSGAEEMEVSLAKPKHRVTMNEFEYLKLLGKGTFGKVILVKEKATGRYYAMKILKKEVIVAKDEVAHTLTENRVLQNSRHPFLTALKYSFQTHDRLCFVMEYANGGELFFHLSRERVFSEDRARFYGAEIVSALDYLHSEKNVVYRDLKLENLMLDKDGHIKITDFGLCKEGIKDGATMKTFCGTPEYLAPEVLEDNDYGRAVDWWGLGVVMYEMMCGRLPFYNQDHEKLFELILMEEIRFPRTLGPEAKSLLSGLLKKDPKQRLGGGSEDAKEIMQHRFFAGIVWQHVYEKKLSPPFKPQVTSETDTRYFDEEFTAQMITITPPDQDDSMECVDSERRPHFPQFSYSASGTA
Sequence of KIT (P10721 26-976): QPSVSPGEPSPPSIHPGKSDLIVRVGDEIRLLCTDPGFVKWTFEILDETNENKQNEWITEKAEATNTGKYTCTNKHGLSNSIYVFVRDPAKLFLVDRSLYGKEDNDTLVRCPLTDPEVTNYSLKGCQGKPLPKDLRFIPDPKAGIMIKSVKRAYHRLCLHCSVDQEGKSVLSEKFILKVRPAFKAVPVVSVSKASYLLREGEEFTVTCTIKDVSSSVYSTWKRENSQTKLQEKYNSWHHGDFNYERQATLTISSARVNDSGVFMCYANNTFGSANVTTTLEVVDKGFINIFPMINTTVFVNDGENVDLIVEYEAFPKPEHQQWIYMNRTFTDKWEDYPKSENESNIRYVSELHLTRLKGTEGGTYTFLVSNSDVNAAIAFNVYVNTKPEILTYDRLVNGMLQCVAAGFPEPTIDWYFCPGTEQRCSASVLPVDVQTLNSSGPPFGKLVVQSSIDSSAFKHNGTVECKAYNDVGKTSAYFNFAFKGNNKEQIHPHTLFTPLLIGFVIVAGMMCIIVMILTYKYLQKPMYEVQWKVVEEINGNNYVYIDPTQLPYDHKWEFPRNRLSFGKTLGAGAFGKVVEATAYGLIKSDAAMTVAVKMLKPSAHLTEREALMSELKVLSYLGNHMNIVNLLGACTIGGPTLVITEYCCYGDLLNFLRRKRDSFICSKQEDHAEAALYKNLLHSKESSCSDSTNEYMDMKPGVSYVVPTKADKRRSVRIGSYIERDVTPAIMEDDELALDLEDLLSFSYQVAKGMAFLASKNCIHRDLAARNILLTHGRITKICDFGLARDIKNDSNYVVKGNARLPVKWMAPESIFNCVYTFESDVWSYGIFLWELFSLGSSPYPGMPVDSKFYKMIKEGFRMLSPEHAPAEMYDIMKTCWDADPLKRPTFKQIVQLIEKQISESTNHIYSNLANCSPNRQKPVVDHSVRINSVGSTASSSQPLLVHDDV
Sequence of MAPKAPK-2 (P49137 whole entry): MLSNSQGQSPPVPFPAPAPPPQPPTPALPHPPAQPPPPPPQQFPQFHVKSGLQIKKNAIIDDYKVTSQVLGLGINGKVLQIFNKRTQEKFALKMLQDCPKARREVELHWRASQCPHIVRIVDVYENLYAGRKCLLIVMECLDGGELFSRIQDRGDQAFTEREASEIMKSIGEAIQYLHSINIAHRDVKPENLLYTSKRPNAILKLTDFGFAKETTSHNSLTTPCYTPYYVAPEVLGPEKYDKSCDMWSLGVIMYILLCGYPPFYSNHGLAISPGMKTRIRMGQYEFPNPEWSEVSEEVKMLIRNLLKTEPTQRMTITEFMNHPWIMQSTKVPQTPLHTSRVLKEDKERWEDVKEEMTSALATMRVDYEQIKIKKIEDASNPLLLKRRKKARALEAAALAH
Sequence of CHEK2 (O96017 whole entry): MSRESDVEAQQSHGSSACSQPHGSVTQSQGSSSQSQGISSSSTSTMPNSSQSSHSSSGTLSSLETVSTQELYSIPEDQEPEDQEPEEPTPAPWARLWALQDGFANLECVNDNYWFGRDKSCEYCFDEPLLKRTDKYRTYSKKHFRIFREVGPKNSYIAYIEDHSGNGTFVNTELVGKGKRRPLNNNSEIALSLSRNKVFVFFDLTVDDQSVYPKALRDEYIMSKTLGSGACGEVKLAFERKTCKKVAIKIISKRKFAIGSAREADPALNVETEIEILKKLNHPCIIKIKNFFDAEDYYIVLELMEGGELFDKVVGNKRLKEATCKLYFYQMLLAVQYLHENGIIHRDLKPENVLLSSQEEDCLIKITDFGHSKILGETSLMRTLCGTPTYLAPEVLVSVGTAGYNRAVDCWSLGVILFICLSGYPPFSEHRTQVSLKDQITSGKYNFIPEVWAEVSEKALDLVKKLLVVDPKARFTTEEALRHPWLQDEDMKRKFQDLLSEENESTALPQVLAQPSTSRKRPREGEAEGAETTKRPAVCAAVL
Sequence of PDGFR-α (P16234 24-1089): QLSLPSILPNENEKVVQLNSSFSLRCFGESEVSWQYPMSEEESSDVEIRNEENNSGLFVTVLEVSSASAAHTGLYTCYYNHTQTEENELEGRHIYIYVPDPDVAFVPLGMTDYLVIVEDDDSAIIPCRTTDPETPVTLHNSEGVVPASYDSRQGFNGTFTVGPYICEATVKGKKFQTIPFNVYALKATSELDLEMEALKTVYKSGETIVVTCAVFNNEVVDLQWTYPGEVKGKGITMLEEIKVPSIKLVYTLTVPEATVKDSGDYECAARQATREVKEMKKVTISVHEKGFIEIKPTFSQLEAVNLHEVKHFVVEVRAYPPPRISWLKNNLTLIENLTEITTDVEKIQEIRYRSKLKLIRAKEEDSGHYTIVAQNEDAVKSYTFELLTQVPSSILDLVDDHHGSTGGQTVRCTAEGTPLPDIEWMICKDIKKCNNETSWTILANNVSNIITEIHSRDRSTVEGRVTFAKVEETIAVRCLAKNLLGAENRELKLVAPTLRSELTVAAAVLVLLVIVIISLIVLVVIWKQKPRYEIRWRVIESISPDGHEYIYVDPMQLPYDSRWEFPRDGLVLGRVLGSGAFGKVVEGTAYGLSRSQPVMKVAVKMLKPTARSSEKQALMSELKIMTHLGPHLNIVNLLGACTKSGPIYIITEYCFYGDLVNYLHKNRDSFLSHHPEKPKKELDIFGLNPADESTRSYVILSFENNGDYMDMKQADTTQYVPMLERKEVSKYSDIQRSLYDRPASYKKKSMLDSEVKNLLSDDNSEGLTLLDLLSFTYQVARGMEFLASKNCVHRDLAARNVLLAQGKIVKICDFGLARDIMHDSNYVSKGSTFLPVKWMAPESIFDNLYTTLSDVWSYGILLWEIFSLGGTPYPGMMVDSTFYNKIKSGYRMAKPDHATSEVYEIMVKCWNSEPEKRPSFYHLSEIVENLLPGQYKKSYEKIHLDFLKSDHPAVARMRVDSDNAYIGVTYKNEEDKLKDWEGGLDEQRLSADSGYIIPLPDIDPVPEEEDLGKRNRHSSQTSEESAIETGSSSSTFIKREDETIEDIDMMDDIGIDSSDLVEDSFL
Sequence of INSR (P06213 28-1382): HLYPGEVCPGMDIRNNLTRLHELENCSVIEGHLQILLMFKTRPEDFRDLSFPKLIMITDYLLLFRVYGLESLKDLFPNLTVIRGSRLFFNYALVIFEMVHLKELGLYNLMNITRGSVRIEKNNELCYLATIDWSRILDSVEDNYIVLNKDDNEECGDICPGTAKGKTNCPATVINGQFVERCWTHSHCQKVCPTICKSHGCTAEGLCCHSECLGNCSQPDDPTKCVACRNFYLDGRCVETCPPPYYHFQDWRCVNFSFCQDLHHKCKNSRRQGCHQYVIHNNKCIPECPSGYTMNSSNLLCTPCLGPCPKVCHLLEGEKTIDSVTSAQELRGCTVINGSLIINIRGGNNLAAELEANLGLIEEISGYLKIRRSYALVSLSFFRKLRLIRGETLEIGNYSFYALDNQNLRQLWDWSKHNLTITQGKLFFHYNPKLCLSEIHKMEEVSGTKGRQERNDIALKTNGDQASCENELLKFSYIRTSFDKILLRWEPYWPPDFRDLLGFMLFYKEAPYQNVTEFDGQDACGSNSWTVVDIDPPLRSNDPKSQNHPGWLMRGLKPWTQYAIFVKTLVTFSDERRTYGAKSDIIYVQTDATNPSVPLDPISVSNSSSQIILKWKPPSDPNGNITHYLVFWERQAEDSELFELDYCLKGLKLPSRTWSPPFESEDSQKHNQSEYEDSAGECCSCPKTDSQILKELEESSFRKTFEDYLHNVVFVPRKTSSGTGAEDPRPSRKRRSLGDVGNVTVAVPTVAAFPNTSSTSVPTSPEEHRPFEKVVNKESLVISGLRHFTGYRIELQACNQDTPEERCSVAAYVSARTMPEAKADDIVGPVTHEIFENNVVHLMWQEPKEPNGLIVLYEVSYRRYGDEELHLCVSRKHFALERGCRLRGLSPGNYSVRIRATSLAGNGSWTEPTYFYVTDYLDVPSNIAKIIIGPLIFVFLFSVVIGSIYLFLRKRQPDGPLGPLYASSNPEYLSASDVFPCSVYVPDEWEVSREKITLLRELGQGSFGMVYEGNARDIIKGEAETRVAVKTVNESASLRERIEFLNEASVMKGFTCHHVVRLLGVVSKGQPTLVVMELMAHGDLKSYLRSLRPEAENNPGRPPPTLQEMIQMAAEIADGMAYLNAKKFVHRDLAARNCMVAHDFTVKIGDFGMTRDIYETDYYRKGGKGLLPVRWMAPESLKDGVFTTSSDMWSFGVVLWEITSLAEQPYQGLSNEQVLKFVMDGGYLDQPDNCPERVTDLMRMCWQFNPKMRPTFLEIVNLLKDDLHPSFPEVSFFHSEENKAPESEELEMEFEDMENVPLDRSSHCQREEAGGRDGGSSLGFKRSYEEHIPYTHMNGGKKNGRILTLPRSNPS

As to `COc1ccc(-c2csc(N(CCCN3CCOCC3)C(=O)c3cc(Cl)sc3Cl)n2)cc1` [2,5-dichloro-N-(4-(4-methoxyphenyl)thiazol-2-yl)-N-(3-morpholinopropyl)thiophene-3-carboxamide], the Activity entry at CDK2 was “CDK2”.
For the molecule `COc1ccc(-c2csc(N(CCCN3CCOCC3)C(=O)Cc3ccccc3Cl)n2)cc1` [2-(2-chlorophenyl)-N-(4-(4-methoxyphenyl)thiazol-2-yl)-N-(3-morpholinopropyl)acetamide], the Activity result on BMX is recorded as “BMX”.
As for `O=C(c1cccs1)N(CCCN1CCOCC1)c1nc(-c2cccnc2)cs1` [N-(3-morpholinopropyl)-N-(4-(pyridin-3-yl)thiazol-2-yl)thiophene-2-carboxamide], the Activity result is listed as “AKT1” on AKT1 and “CDK2/cyclin E” at CDK2/cyclin E.
`CCN(CC)c1ccc(-c2csc(N(CCCN3CCOCC3)C(=O)c3cccs3)n2)cc1` [N-(4-(4-(diethylamino)phenyl)thiazol-2-yl)-N-(3-morpholinopropyl)thiophene-2-carboxamide]: the Activity result on AKT1 is on record as “AKT1”; on SYK, “SYK”.
As for `COc1ccc(-c2csc(N(CCCN3CCOCC3)C(=O)c3cc(C)n(C)c3C)n2)cc1` [N-(4-(4-methoxyphenyl)thiazol-2-yl)-1,2,5-trimethyl-N-(3-morpholinopropyl)-1H-pyrrole-3-carboxamide], the Activity entry at CDK2/cyclin E was “CDK2/cyclin E”.
Turning to `COc1ccc(-c2csc(N(CCCN3CCOCC3)C(=O)c3sc(C)nc3C)n2)cc1` [N-(4-(4-methoxyphenyl)thiazol-2-yl)-2,4-dimethyl-N-(3-morpholinopropyl)thiazole-5-carboxamide], the Activity result on PDK1 was “PDK1”.
As to `COc1ccc(-c2csc(N(CCCN3CCOCC3)C(=O)c3snnc3C)n2)cc1` [N-(4-(4-methoxyphenyl)thiazol-2-yl)-4-methyl-N-(3-morpholinopropyl)-1,2,3-thiadiazole-5-carboxamide], the Activity result is recorded as “KIT” on KIT; “FLT-3” at FLT-3; “PDGFR-α” at PDGFR-α; “ZAP70” at ZAP70; “DYRK2” at DYRK2.
For `COc1ccc(-c2csc(N(CCCN3CCOCC3)C(=O)c3ccc(C)cc3)n2)cc1` [N-(4-(4-methoxyphenyl)thiazol-2-yl)-4-methyl-N-(3-morpholinopropyl)benzamide], at FLT-3, the Activity entry was “FLT-3”.
Regarding `COc1ccc(-c2csc(N(CCCN3CCN(C)CC3)C(=O)c3ccco3)n2)cc1` [N-(4-(4-methoxyphenyl)thiazol-2-yl)-N-(3-(4-methylpiperazin-1-yl)propyl)furan-2-carboxamide], the Activity result at AKT1 is “AKT1”; on MAPKAPK-2, “MAPKAPK-2”; at CHEK2, “CHEK2”.
As for `COc1ccc(-c2csc(N(CCCN3CCN(C)CC3)C(=O)c3cccs3)n2)cc1` [N-(4-(4-methoxyphenyl)thiazol-2-yl)-N-(3-(4-methylpiperazin-1-yl)propyl)thiophene-2-carboxamide], the values for the Activity entry at AKT1 and at INSR were “AKT1” and “INSR”, respectively.
With `COc1ccc(-c2csc(N(CCCN3CCOCC3)C(=O)c3ccc([N+](=O)[O-])s3)n2)cc1` [N-(4-(4-methoxyphenyl)thiazol-2-yl)-N-(3-morpholinopropyl)-5-nitrothiophene-2-carboxamide], the figures for the Activity entry at KIT, on FLT-3 and at ZAP70 were “KIT”, “FLT-3” and “ZAP70”, respectively.

Source of the values: US7795290B2 (Genentech, Inc., priority 2004, dated 2010).
